Laboratory results reported in patent US9340616B2, “Methods and compositions for heptameric targeting ligands” (The University of North Carolina at Chapel Hill, priority 2011, dated 2016).

What was measured:
EGFR-positive A431 cells = experiment: MTS cell proliferation assay, A431; assay type: cell-based; conditions: 10 μM, 24 h, positive control
Procedure: (§1) FIGS. 10A-C. Cellular toxicity of heptameric molecules. A) A431 (EGFR), B) SK-OV3 (HER2), and C) LNCaP cells were incubated with 1 uM of each of the heptamer molecules for 24 hours at 37° C. Cisplatin (10 uM) was also incubated with each of the cells as a positive control. Cells without incubation with any proteins or cisplatin were used as a negative control.
(§2) A CellTiter96 Aqueous Non-Radioactive Cell Proliferation Assay kit from Promega (Madison, Wis.) was used for MTS assay. Approximately 10^4 cells were seeded on each well in a 96-well plate and grown for 16 hours at 37° C. Each heptameric molecule was incubated with the cells for 24 hours and Cis-platinum (II) diamine dichloride (cisplatin, CDDP) (Sigma-Aldrich Chemical Co) was used as positive control. 20 μl of MTS/PMS solution was added into each well followed by incubation for 4 hours at 37° C. The absorbance at 490 nm was recorded using an ELISA plate reader.
(§3) A CellTiter96 Aqueous Non-Radioactive Cell Proliferation Assay kit from Promega (Madision, Wis.) was used for the MTS assay. Approximately 1×10^4 cells were seeded in each well of a 96-well plate and grown for 16 h at 37° C. Each heptameric molecule was incubated with the cells for 24 h. 10 μM Cis-platinum (II) diamine dichloride (Sigma-Aldrich Chemical Co, St Louis, Mo.) was used as a positive control. […] The absorbance at 490 nm was recorded using an ELISA plate reader.

[1] = system: HER2-positive SK-OV3 cells; experiment: MTS cell proliferation assay, SK-OV3; assay type: cell-based; conditions: 10 μM, 24 h, positive control
Procedure: as §1, §2, §3

Compound: N.N.[Cl][Pt][Cl] [cisplatin, Cis-platinum (II) diamine dichloride]
- cell proliferation inhibited to (EGFR-positive A431 cells): 50%
- cell proliferation inhibited to [1]: 50%
